Activity calls are given as the source filed them. The rule behind the calls is not given here.
Legend:
PC-3 = assay: Antiproliferative activity against human PC3 cells after 48 hrs by MTT assay; type: functional, cell-based; conditions: PC-3, 48 h
HT-29 = assay: Antiproliferative activity against human HT-29 cells after 48 hrs by MTT assay; type: functional, cell-based; conditions: HT-29, 48 h
HepG2 [1] = assay: Antiproliferative activity against human HepG2 cells after 48 hrs by MTT assay; type: functional, cell-based; conditions: HepG2, 48 h
A549 = assay: Antiproliferative activity against human A549 cells after 48 hrs by MTT assay; type: functional, cell-based; conditions: A549, 48 h
HL-60 = assay: Antiproliferative activity against human HL60 cells after 48 hrs by MTT assay; type: functional, cell-based; conditions: HL-60, 48 h
U-937 = assay: Antiproliferative activity against human U937 cells after 48 hrs by MTT assay; type: functional, cell-based; conditions: U-937, 48 h
HepG2 [2] = assay: Induction of apoptosis in human HepG2 cells assessed as necrotic cells at 0.5 uM after 48 hrs by Annexin V-FITC/propidium iodide staining based flow cytometry (reference value: 0.06%); type: functional
HepG2 [3] = assay: Induction of apoptosis in human HepG2 cells assessed as late apoptotic cells at 0.5 uM after 48 hrs by Annexin V-FITC/propidium iodide staining based flow cytometry (reference value: 0.02%); type: functional
HepG2 [4] = assay: Induction of apoptosis in human HepG2 cells assessed as live cells at 0.5 uM after 48 hrs by Annexin V-FITC/propidium iodide staining based flow cytometry (reference value: 95.5%); type: functional
HepG2 [5] = assay: Induction of apoptosis in human HepG2 cells assessed as early apoptotic cells at 0.5 uM after 48 hrs by Annexin V-FITC/propidium iodide staining based flow cytometry (reference value: 4.42%); type: functional
HepG2 [6] = assay: Induction of apoptosis in human HepG2 cells assessed as necrotic cells at 1 uM after 48 hrs by Annexin V-FITC/propidium iodide staining based flow cytometry (reference value: 0.06%); type: functional
HepG2 [7] = assay: Induction of apoptosis in human HepG2 cells assessed as late apoptotic cells at 1 uM after 48 hrs by Annexin V-FITC/propidium iodide staining based flow cytometry (reference value: 0.02%); type: functional
HepG2 [8] = assay: Induction of apoptosis in human HepG2 cells assessed as live cells at 1 uM after 48 hrs by Annexin V-FITC/propidium iodide staining based flow cytometry (reference value: 95.5%); type: functional
HepG2 [9] = assay: Induction of apoptosis in human HepG2 cells assessed as early apoptotic cells at 1 uM after 48 hrs by Annexin V-FITC/propidium iodide staining based flow cytometry (reference value: 4.42%); type: functional
HepG2 [10] = assay: Induction of apoptosis in human HepG2 cells assessed as necrotic cells at 2 uM after 48 hrs by Annexin V-FITC/propidium iodide staining based flow cytometry (reference value: 0.06%); type: functional
HepG2 [11] = assay: Induction of apoptosis in human HepG2 cells assessed as late apoptotic cells at 2 uM after 48 hrs by Annexin V-FITC/propidium iodide staining based flow cytometry (reference value: 0.02%); type: functional
HepG2 [12] = assay: Induction of apoptosis in human HepG2 cells assessed as live cells at 2 uM after 48 hrs by Annexin V-FITC/propidium iodide staining based flow cytometry (reference value: 95.5%); type: functional
HepG2 [13] = assay: Induction of apoptosis in human HepG2 cells assessed as early apoptotic cells at 2 uM after 48 hrs by Annexin V-FITC/propidium iodide staining based flow cytometry (reference value: 4.42%); type: functional
HepG2 [14] = assay: Cell cycle arrest in human HepG2 cells after 48 hrs by propidium iodide staining based flow cytometry; type: functional
HepG2 [15] = assay: Cell cycle arrest in human HepG2 cells assessed as accumulation at G1-phase at 0.5 uM after 48 hrs by propidium iodide staining based flow cytometry (reference value: 40.6%); type: functional
HepG2 [16] = assay: Cell cycle arrest in human HepG2 cells assessed as accumulation at G2-phase at 0.5 uM after 48 hrs by propidium iodide staining based flow cytometry (reference value: 32.61%); type: functional
HepG2 [17] = assay: Cell cycle arrest in human HepG2 cells assessed as accumulation at S-phase at 0.5 uM after 48 hrs by propidium iodide staining based flow cytometry (reference value: 26.79%); type: functional
HepG2 [18] = assay: Cell cycle arrest in human HepG2 cells assessed as accumulation at G1-phase at 1 uM after 48 hrs by propidium iodide staining based flow cytometry (reference value: 40.6%); type: functional
HepG2 [19] = assay: Cell cycle arrest in human HepG2 cells assessed as accumulation at G2-phase at 1 uM after 48 hrs by propidium iodide staining based flow cytometry (reference value: 32.61%); type: functional
HepG2 [20] = assay: Cell cycle arrest in human HepG2 cells assessed as accumulation at S-phase at 1 uM after 48 hrs by propidium iodide staining based flow cytometry (reference value: 26.79%); type: functional
HepG2 [21] = assay: Cell cycle arrest in human HepG2 cells assessed as accumulation at G1-phase at 2 uM after 48 hrs by propidium iodide staining based flow cytometry (reference value: 40.6%); type: functional
HepG2 [22] = assay: Cell cycle arrest in human HepG2 cells assessed as accumulation at G2-phase at 2 uM after 48 hrs by propidium iodide staining based flow cytometry (reference value: 32.61%); type: functional
HepG2 [23] = assay: Cell cycle arrest in human HepG2 cells assessed as accumulation at S-phase at 2 uM after 48 hrs by propidium iodide staining based flow cytometry (reference value: 26.79%); type: functional
HepG2 [24] = assay: Induction of mitochondrial membrane depolarization in human HepG2 cells at 0.5 uM after 48 hrs by JC-1 staining based flow cytometry (reference value: 1.3%); type: functional
HepG2 [25] = assay: Induction of mitochondrial membrane depolarization in human HepG2 cells at 1 uM after 48 hrs by JC-1 staining based flow cytometry (reference value: 1.3%); type: functional
HepG2 [26] = assay: Induction of mitochondrial membrane depolarization in human HepG2 cells at 2 uM after 48 hrs by JC-1 staining based flow cytometry (reference value: 1.3%); type: functional
HepG2 [27] = assay: Induction of mitochondrial membrane depolarization in human HepG2 cells after 48 hrs by JC-1 staining based flow cytometry; type: functional, cell-based
HepG2 [28] = assay: Upregulation of cytochrome-c protein expression in human HepG2 cells assessed as ratio of cytochrome-c to GAPDH expression level at 0.5 to 2 uM after 48 hrs by Western blot analysis (reference value: 0.05); type: functional
HepG2 [29] = assay: Upregulation of cytochrome-c protein expression in human HepG2 cells after 48 hrs by Western blot analysis; type: functional, cell-based
HepG2 [30] = assay: Downregulation of Bcl2 protein expression in human HepG2 cells assessed as ratio of Bcl2 to GAPDH expression level at 0.5 uM after 48 hrs by Western blot analysis (reference value: 0.97); type: functional
HepG2 [31] = assay: Downregulation of Bcl2 protein expression in human HepG2 cells assessed as ratio of Bcl2 to GAPDH expression level at 1 uM after 48 hrs by Western blot analysis (reference value: 0.97); type: functional
HepG2 [32] = assay: Downregulation of Bcl2 protein expression in human HepG2 cells assessed as ratio of Bcl2 to GAPDH expression level at 2 uM after 48 hrs by Western blot analysis (reference value: 0.97); type: functional
HepG2 [33] = assay: Upregulation of caspase-3 protein expression in human HepG2 cells assessed as ratio of caspase-3 to GAPDH expression level at 2 uM after 48 hrs by Western blot analysis (reference value: 0.25); type: functional
HepG2 [34] = assay: Upregulation of caspase-9 protein expression in human HepG2 cells assessed as ratio of caspase-9 to GAPDH expression level at 1 uM after 48 hrs by Western blot analysis (reference value: 0.17); type: functional
HepG2 [35] = assay: Upregulation of caspase-9 protein expression in human HepG2 cells at 2 uM after 48 hrs by Western blot analysis; type: functional, cell-based

Cc1ccc(-n2cc(CNC(=O)[C@]34CCC(C)(C)C[C@H]3C3=CC[C@@H]5[C@@]6(C)CC[C@H](O[C@@H]7OC[C@H](O[C@@H]8O[C@H](CO)[C@@H](O)[C@H](O)[C@H]8O)[C@H](O)[C@H]7O[C@@H]7O[C@@H](C)[C@H](O)[C@@H](O)[C@H]7O)C(C)(C)[C@@H]6CC[C@@]5(C)[C@]3(C)CC4)nn2)cc1
IC50 (PC-3): 0.54 µM | IC50 (HT-29): 0.93 µM | IC50 (HepG2 [1]): 0.54 µM | IC50 (A549): 2.66 µM | IC50 (HL-60): 0.81 µM | IC50 (U-937): 0.73 µM | Activity (HepG2 [2]): 0.3% | Activity (HepG2 [3]): 6.89% | Activity (HepG2 [4]): 74.94% | Activity (HepG2 [5]): 17.87% | Activity (HepG2 [6]): 0.56% | Activity (HepG2 [7]): 21.58% | Activity (HepG2 [8]): 53.1% | Activity (HepG2 [9]): 24.76% | Activity (HepG2 [10]): 1.51% | Activity (HepG2 [11]): 35.77% | Activity (HepG2 [12]): 41.56% | Activity (HepG2 [13]): 21.07% | Activity (HepG2 [14]): Dose-dependent effect | Activity (HepG2 [15]): 48.7% | Activity (HepG2 [16]): 18.01% | Activity (HepG2 [17]): 33.29% | Activity (HepG2 [18]): 48.4% | Activity (HepG2 [19]): 15.68% | Activity (HepG2 [20]): 35.92% | Activity (HepG2 [21]): 49.35% | Activity (HepG2 [22]): 11.33% | Activity (HepG2 [23]): 39.32% | Activity (HepG2 [24]): 15.98% | Activity (HepG2 [25]): 33.51% | Activity (HepG2 [26]): 54.12% | Activity (HepG2 [27]): Dose-dependent effect | Ratio (HepG2 [28]): 0.4 | Activity (HepG2 [29]): Dose-dependent effect | Ratio (HepG2 [30]): 0.64 | Ratio (HepG2 [31]): 0.47 | Ratio (HepG2 [32]): 0.19 | Ratio (HepG2 [33]): 0.63 | Ratio (HepG2 [34]): 0.45 | Activity (HepG2 [35]): Active

Source: ChEMBL document CHEMBL4229426, “Synthesis, antitumor activity evaluation and mechanistic study of novel hederacolchiside A1 derivatives bearing an aryl triazole moiety” (Bioorg Med Chem, 2018)
